From US20170197979A1, “BENZOTHIADIAZOLAMINES” (BAYER PHARMA AKTIENGESELLSCHAFT, priority 2014, published 2017)

These compounds were tested against T1, human full-length MKNK1 (Homo sapiens, UniProt Q9BUB5, T385D) (assay: MKNK1 kinase high ATP assay (TR-FRET)). Settings: TR-FRET, high ATP (2 mM final), 15 min preincubation with enzyme, GST-MKNK1 (T344D); read-out: MKNK1 IC50.
T1 construct: GST (N); purchased Carna Biosciences 02-145; host or cells: insect cells (baculovirus expression system)
Format: biochemical
Description: MKNK1 Kinase High ATP Assay
MKNK1-inhibitory activity at high ATP of compounds of the present invention after their preincubation with MKNK1 was quantified employing the TR-FRET-based MKNK1 high ATP assay as described in the following paragraphs.
A recombinant fusion protein of Glutathione-S-Transferase (GST, N-terminally) and human full-length MKNK1 (amino acids 1-424 and T344D of accession number BAA 19885.1), expressed in insect cells using baculovirus expression system and purified via glutathione sepharose affinity chromatography, was purchased from Carna Biosciences (product no 02-145) and used as enzyme. As substrate for the kinase reaction the biotinylated peptide biotin-Ahx-IKKRKLTRRKSLKG (C-terminus in amide form) was used, which can be purchased e.g. from the company Biosyntan (Berlin-Buch, Germany).
For the assay 50 nL of a 100 fold concentrated solution of the test compound in DMSO was pipetted into a black low volume 384 well microtiter plate (Greiner Bio-One, Frickenhausen, Germany), 2 μL of a solution of MKNK1 in aqueous assay buffer [50 mM HEPES pH 7.5, 5 mM MgCl2, 1.0 mM dithiothreitol, 0.005% (v/v) Nonidet-P40 (Sigma)] was added and the mixture was incubated for 15 min at 22° C. to allow pre-binding of the test compounds to the enzyme before the start of the kinase reaction. Then the kinase reaction was started by the addition of 3 μL of a solution of adenosine-tri-phosphate (ATP, 3.3 mM=>final conc. in the 5 μL assay volume is 2 mM) and substrate (0.1 μM=>final conc. in the 5 μL assay volume is 0.06 μM) in assay buffer and the resulting mixture was incubated for a reaction time of 30 min at 22° C. The concentration of MKNK1 was adjusted depending of the activity of the enzyme lot and was chosen appropriate to have the assay in the linear range, typical concentrations were in the range of 0.003 μg/mL. The reaction was stopped by the addition of 5 μL of a solution of TR-FRET detection reagents (5 nM streptavidine-XL665 [Cisbio Bioassays, Codolet, France] and 1 nM anti-ribosomal protein S6 (pSer236)-antibody from Invitrogen [#44921G] and 1 nM LANCE EU-W1024 labeled ProteinG [Perkin-Elmer, product no. AD0071]) in an aqueous EDTA-solution (100 mM EDTA, 0.1% (w/v) bovine serum albumin in 50 mM HEPES pH 7.5).
The resulting mixture was incubated for 1 h at 22° C. to allow the formation of complex between the phosphorylated biotinylated peptide and the detection reagents. Subsequently the amount of phosphorylated substrate was evaluated by measurement of the resonance energy transfer from the Eu-chelate to the streptavidine-XL. Therefore, the fluorescence emissions at 620 nm and 665 nm after excitation at 350 nm were measured in a TR-FRET reader, e.g. a Rubystar (BMG Labtechnologies, Offenburg, Germany) or a Viewlux (Perkin-Elmer). The ratio of the emissions at 665 nm and at […] was taken as the measure for the amount of phosphorylated substrate. The data were normalised (enzyme reaction without inhibitor=0% inhibition, all other assay components but no enzyme=100% inhibition).

T1 sequence (Q9BUB5 1-424 isoform Q9BUB5-2 T344D): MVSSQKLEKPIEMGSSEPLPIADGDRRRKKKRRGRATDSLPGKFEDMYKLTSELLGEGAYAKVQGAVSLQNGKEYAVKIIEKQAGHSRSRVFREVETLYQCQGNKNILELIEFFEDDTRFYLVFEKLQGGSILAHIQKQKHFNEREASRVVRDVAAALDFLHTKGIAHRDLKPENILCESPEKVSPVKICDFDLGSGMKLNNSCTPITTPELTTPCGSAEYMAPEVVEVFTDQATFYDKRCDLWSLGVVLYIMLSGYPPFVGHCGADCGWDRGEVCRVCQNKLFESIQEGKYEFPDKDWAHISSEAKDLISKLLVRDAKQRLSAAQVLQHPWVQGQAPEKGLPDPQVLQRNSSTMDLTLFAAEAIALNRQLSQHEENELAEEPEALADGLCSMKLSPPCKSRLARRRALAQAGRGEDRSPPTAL

**Q.** With `CN(C)C(=O)[C@H]1CCc2c(sc3ncnc(Nc4ccc5nnsc5c4)c23)C1` [Example 1, (7S)-4-(1,2,3-Benzothiadiazol-6-ylamino)-N,N-dimethyl-5,6,7,8-tetrahydro[1]benzothieno[2,3-d]pyrimidine-7-carboxamide] as the compound, how does the IC50 read?
**A.** 0.016 µM

**Q.** How did the IC50 turn out when `COc1cc2nnsc2cc1Nc1ncnc2sc3c(c12)CC[C@H](C(=O)N1CCN(C)CC1)C3` [Example 50, {(7S)-4-[(5-Methoxy-1,2,3-benzothiadiazol-6-yl)amino]-5,6,7,8-tetrahydro[1]benzothieno[2,3-d]pyrimidin-7-yl}(4-methylpiperazin-1-yl)methanone] was run?
**A.** 0.011 µM

**Q.** Which IC50 does the source give for `CN1CCN(C(=O)[C@H]2CCc3c(sc4ncnc(Nc5ccc6nnsc6c5)c34)C2)CC1` [Example 34, [(7S)-4-(1,2,3-Benzothiadiazol-6-ylamino)-5,6,7,8-tetrahydro[1]benzothieno[2,3-d]pyrimidin-7-yl](4-methylpiperazin-1-yl)methanone] here?
**A.** 0.013 µM

**Q.** With `CN(C)CCCN(C)C(=O)[C@H]1CCc2c(sc3ncnc(Nc4ccc5nnsc5c4)c23)C1` [Example 30, (7S)-4-(1,2,3-Benzothiadiazol-6-ylamino)-N-[3-(dimethylamino)propyl]-N-methyl-5,6,7,8-tetrahydro[1]benzothieno[2,3-d]pyrimidine-7-carboxamide] as the compound, how does the IC50 read?
**A.** 0.0081 µM

**Q.** For `CN(C)CCN1CCN(C(=O)[C@H]2CCc3c(sc4ncnc(Nc5ccc6nnsc6c5)c34)C2)CC1` [Example 12, [(7S)-4-(1,2,3-Benzothiadiazol-6-ylamino)-5,6,7,8-tetrahydro[1]benzothieno[2,3-d]pyrimidin-7-yl]{4-[2-(dimethylamino)ethyl]piperazin-1-yl}methanone], which IC50 is on record?
**A.** 0.0064 µM

**Q.** Which IC50 does the source give for `O=C([C@H]1CCc2c(sc3ncnc(Nc4ccc5nnsc5c4)c23)C1)N1C[C@@H]2C[C@H]1CO2` [Example 18, [(7S)-4-(1,2,3-Benzothiadiazol-6-ylamino)-5,6,7,8-tetrahydro[1]benzothieno[2,3-d]pyrimidin-7-yl][(1S,4S)-2-oxa-5-azabicyclo[2.2.1]hept-5-yl]methanone] here?
**A.** 0.014 µM

**Q.** With `O=C([C@H]1CCc2c(sc3ncnc(Nc4ccc5nnsc5c4)c23)C1)N1CCOCC1` [Example 6, [(7S)-4-(1,2,3-Benzothiadiazol-6-ylamino)-5,6,7,8-tetrahydro[1]benzothieno[2,3-d]pyrimidin-7-yl](morpholin-4-yl)methanone] as the compound, how does the IC50 read?
**A.** 0.018 µM

**Q.** How did the IC50 turn out when `CCN(CCO)C(=O)[C@H]1CCc2c(sc3ncnc(Nc4ccc5nnsc5c4)c23)C1` [Example 28, (7S)-4-(1,2,3-Benzothiadiazol-6-ylamino)-N-ethyl-N-(2-hydroxyethyl)-5,6,7,8-tetrahydro[1]benzothieno[2,3-d]pyrimidine-7-carboxamide] was run?
**A.** 0.0086 µM

**Q.** Which IC50 does the source give for `C[C@@H]1COC[C@H](C)N1C(=O)[C@H]1CCc2c(sc3ncnc(Nc4ccc5nnsc5c4)c23)C1` [Example 7, [(7S)-4-(1,2,3-Benzothiadiazol-6-ylamino)-5,6,7,8-tetrahydro[1]benzothieno[2,3-d]pyrimidin-7-yl][(3R,5S)-3,5-dimethylmorpholin-4-yl]methanone] here?
**A.** 0.0058 µM

**Q.** Which IC50 does the source give for `COc1cc2nnsc2cc1Nc1ncnc2sc3c(c12)CC[C@H](C(=O)N1CC[C@@H](N(C)C)C1)C3` [Example 52, [(3R)-3-(Dimethylamino)pyrrolidin-1-yl]{(7S)-4-[(5-methoxy-1,2,3-benzothiadiazol-6-yl)amino]-5,6,7,8-tetrahydro[1]benzothieno[2,3-d]pyrimidin-7-yl}methanone] here?
**A.** 0.0021 µM

**Q.** `CN1C[C@@H]2C[C@H]1CN2C(=O)[C@H]1CCc2c(sc3ncnc(Nc4ccc5nnsc5c4)c23)C1` [Example 19, [(7S)-4-(1,2,3-Benzothiadiazol-6-ylamino)-5,6,7,8-tetrahydro[1]benzothieno[2,3-d]pyrimidin-7-yl][(1S,4S)-5-methyl-2,5-diazabicyclo[2.2.1]hept-2-yl]methanone] was tested. Which IC50 did it give?
**A.** 0.02 µM
